Earlier results, collected in US20190307762A1, “METHODS AND COMPOSITIONS FOR THE TREATMENT OF TRAUMA AND STRESSOR-RELATED DISORDERS” (priority 2016, published 2019).

What was measured:
[1] = for Equivalent amount: dose equivalent to 20 mg hydrocortisone; for Hydrocortisone equivalent (1 mg of the glucocorticoid corresponds to the listed amount in mg of hydrocortisone): per 1 mg of the glucocorticoid
cytochrome P-450 3A4 = cytochrome P-450 3A4 (Homo sapiens, UniProt P08684)
[2] = in vivo
[3] = tested on: generalized anxiety disorders; conditions: versus placebo and alprazolam
sigma 2 receptors = sigma 2 receptors (Homo sapiens, UniProt Q5BJF2)
Chain of sigma 2 receptors (Q5BJF2 whole entry): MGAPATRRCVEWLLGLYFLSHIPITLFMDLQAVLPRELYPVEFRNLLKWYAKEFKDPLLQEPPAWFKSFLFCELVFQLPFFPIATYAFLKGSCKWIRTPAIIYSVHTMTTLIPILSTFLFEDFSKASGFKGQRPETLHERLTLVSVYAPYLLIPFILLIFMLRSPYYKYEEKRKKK

[4] = tested on: histamine (H1.H2), serotonin (5-HT2), dopamine (D2.D1), adrenergic (al) receptors; conditions: in vitro; decreasing order H1.H2, 5-HT2, D2.D1, al
[5] = tested on: serotonin (5-HT) or noradrenaline reuptake
neurological tissue = conditions: preclinical; linked to binding to sigma one receptors
cholinergic receptors = conditions: in vitro

Chain of cytochrome P-450 3A4 (P08684 whole entry): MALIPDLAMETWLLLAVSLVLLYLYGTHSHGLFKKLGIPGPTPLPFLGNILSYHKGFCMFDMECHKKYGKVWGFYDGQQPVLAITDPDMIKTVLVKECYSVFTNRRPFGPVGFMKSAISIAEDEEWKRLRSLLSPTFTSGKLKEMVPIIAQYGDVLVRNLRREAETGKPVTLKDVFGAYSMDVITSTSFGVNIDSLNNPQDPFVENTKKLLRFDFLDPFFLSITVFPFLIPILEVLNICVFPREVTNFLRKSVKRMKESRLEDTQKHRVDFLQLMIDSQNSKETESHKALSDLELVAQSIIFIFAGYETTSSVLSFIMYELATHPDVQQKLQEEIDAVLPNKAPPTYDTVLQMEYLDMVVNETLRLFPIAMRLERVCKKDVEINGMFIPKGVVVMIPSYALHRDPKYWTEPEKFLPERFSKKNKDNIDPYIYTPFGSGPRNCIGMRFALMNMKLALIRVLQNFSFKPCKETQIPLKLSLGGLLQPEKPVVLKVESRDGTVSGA

| Compound | Equivalent amount [1] | Hydrocortisone equivalent (1 mg of the glucocorticoid corresponds to the listed amount in mg of hydrocortisone) [1] | also measured |
| --- | --- | --- | --- |
| C[C@H]1C[C@H]2[C@@H]3CCC4=CC(=O)C=C[C@]4(C)[C@@]3(F)[C@@H](O)C[C@]2(C)[C@@]1(O)C(=O)CO [Betarnethasone] | 0.75 mg | 26.66 mg | – |
| CC(=O)OCC(=O)[C@@]1(O)CC[C@H]2[C@@H]3CCC4=CC(=O)CC[C@]4(C)[C@H]3C(=O)C[C@@]21C [Cortisone acetate] | 25 mg | 0.8 mg | – |
| C[C@]12CCC(=O)C=C1CC[C@@H]1[C@@H]2[C@@H](O)C[C@@]2(C)[C@H]1CC[C@]2(O)C(=O)CO [Hydrocortisone] | 20 mg | 1 mg | – |
| C[C@@H]1C[C@H]2[C@@H]3C[C@H](F)C4=CC(=O)C=C[C@]4(C)[C@H]3[C@@H](O)C[C@]2(C)[C@@]1(O)C(=O)CO [Pararnethasone] | 2 mg | 10 mg | – |
| C[C@]12C=CC(=O)C=C1CC[C@@H]1[C@@H]2[C@@H](O)C[C@@]2(C)[C@H]1CC[C@]2(O)C(=O)CO [Prednisolone] | 5 mg | 4 mg | – |
| C[C@]12C=CC(=O)C=C1CC[C@H]1[C@@H]3C[C@@H](O)[C@](O)(C(=O)CO)[C@@]3(C)C[C@H](O)[C@@]12F [Triamcinolone] | 4 mg | 5 mg | – |
| OCCN1CCN(CCCN2c3ccccc3C=Cc3ccccc32)CC1 [opipramol] | – | – | CYP substrate (cytochrome P-450 3A4): CYP3A substrate; sigma ligand strength (sigma): strong sigma ligand; risk of drug dependence [2]: no risk of drug dependence; levels of cGMP (cGMP): induces increased levels of cGMP; anxiolytic efficacy [3]: superiority over placebo and similar efficacy to alprazolam; signaling at sigma 2 receptors (sigma 2 receptors): down regulate signaling at sigma 2 receptors; receptor blockade [4]: blocks the following receptors in decreasing order; reuptake inhibiting properties [5]: without reuptake inhibiting properties; protection against glutamate mediated toxicity (neurological tissue): ability to protect neurological tissue against the effects of glutamate mediated toxicity; receptor blockade (cholinergic receptors): very weakly |
